Measured values from patent US7053228B2, “Sulfur analogues of 21-hydroxy-6,19-oxidoprogesterone (21OH-6OP) for treating excess of glucocorticoids” (Applied Research Systems ARS Holding N.V., priority 2000, dated 2006).

Experiments:
rat thymocytes = experiment: Apoptosis in rat thymocytes (annexin V-FITC/propidium iodide flow cytometry); format: cell-based; conditions: early + late apoptosis
Procedure: On this basis, the antiglucocorticoid properties of the compounds of the present invention may be determined by examining the decrease/increase of apoptosis in rat thymocytes after treatment with a given test compounds. Regulation of apoptosis was analyzed by flow cytometry. The method consists of quantifying fluorometrically the apoptotic cells in the sample. In normal viable cells phosphatidyl serine (PS) is located on the cytoplasmic surface of the cell membrane. Upon induction of apoptosis, rapid alteration in the organization of phospholipids in most cell types occurs leading to exposure of PS on the cell surface. In vitro detection of externalized PS may be achieved through interaction with the anticoagulant annexin V. In the presence of calcium, rapid high affinity binding of annexin V to PS occurs. PS translocation to the cell surface precedes nuclear breakdown, DNA fragmentation and the appearance of most apoptosis-associated molecules making annexin V binding a marker of early-stage apoptosis. In the assay used, a fluorescein isothiocyanate (FITC) conjugate of annexin V is used allowing detection of apoptosis by flow cytometry. Since membrane permeabilization is observed in necrosis, necrotic cells will also bind annexin V-FITC. Propidium iodide is used to distinguish between viable and early apoptotic cells thus the latter will be labeled only with FITC while late apoptotic cells will be labeled with FITC and propidium iodide. An annexin V-FITC apoptosis detection kit from Oncogen Research Products (cat. No. PF032) was used following the RAPID protocol recommended by the manufacturer. Briefly, after incubation with various compounds (see below), cells were centrifuged at 2000 rpm for 5 min, the media removed and cell pellets washed with phosphate buffered saline (PBS): Cells were resuspended in the binding buffer to a density of 1×10^6 cells/ml. Binding reagent (10 μl) and annexin V/FITC (1.25 μl) were added and cells incubated for 15 min at room temperature in the dark. The cells were centrifuged and to the pellet were added binding buffer (0.5 ml) and propidium iodide (10 μl). Samples were analyzed by flow cytometry in a Cytoron Absolute cytometer (Ortho Diagnostic Systems). […] The cytograms obtained are presented in FIGS. 3a-3f, where GR-FL represents fluorescence from FITC and RD-FL represents fluorescence from propidium iodide. […] Early apoptotic cells with exposed PS but intact cell membranes appear in the […] quadrant. Necrotic or late apoptotic cells appear in the upper right quadrant. A small percentage of normal cell death may also occur, none is observed in this case.

glucocorticoid receptor = biological target: T1, glucocorticoid receptor (Homo sapiens, UniProt P04150); experiment: Reporter gene assay pMMTV-Luc expression in Cos-1 line; format: cell-based; conditions: test compound 10^−6 M with dexamethasone; Cos-1 cells transfected with pMMTV-Luc and pRSV-GR
T1 construct: expressed in transfected cells; host or cells: Cos-1
T1 sequence (P04150 1-777): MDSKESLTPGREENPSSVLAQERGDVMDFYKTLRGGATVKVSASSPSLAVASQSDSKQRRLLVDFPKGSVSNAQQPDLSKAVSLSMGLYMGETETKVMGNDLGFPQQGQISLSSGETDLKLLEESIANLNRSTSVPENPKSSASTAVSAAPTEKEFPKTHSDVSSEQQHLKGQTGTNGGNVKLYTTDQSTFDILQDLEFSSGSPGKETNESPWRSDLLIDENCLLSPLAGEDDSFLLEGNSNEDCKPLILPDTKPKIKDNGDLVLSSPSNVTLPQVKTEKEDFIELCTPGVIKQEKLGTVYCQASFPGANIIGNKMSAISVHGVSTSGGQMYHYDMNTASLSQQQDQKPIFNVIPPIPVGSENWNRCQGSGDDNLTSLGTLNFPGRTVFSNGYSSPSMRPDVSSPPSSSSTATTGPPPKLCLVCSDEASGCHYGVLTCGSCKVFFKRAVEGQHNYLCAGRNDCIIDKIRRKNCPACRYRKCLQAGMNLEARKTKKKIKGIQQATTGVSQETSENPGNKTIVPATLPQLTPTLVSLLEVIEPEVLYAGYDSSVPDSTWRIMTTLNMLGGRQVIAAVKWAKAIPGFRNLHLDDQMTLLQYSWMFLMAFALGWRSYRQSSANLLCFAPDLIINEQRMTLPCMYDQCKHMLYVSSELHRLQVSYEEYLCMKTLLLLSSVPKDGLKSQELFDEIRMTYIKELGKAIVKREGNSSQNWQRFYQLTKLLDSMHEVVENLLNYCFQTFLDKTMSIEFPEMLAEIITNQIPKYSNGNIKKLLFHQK
Procedure: vol. 7 No. 10 (1989). The assay may discriminate between gluco/antigluco- and progestin/antiprogestin-effects of the test compounds. Cells were grown on 100 mm plates with 8 ml D-MEM (Dubecco's modified Eagle's medium Gibco BRL), supplemented with 10% bovine fetal serum (Bioser), 3,7 g/l sodium bicarbonate and 100 IU/penicilin G, 100 μg/ml streptomycin, 0,25 μg amphotericin B in an atmosphere in an of 5% CO2 at 37° C. Cells were treated with 0,25% trypsin, 1 mM EDTA and were plated at a density of 5×10^5 cells/plate, in 60 mm plates. Cos-1 cells were transfected with a construct encoding the glucocorticoid receptor, and a construct with the luciferase gene under the MMTV promoter. Cells were transfected by precipitation with calcium phosphate adding 25 μl of a 2M CaCl2 solution to a solution containing 3 pmoles of vectors pMMTV-Luc and pRSV-GR encoding luciferase and the glucocorticoid receptor, respectively. […]
The transfection mixture was added dropwise to an equal volume of transfection buffer 2×BBS, containing phosphate. […] From the supernatant the luciferase activity was determined. […] Luciferase expression was assayed employing a Promega kit in partial obscurity and measured with a Junior luminometer (EG&G Berthold, Germany).
β Galactosidase was determined by hydrolysis of a phenyl galactoside. […]

uterus-PR = biological target: T2, uterus-PR (Homo sapiens, UniProt P06401); conditions: cited from earlier work
T2 construct: host or cells: uterus
T2 sequence (P06401 1-933): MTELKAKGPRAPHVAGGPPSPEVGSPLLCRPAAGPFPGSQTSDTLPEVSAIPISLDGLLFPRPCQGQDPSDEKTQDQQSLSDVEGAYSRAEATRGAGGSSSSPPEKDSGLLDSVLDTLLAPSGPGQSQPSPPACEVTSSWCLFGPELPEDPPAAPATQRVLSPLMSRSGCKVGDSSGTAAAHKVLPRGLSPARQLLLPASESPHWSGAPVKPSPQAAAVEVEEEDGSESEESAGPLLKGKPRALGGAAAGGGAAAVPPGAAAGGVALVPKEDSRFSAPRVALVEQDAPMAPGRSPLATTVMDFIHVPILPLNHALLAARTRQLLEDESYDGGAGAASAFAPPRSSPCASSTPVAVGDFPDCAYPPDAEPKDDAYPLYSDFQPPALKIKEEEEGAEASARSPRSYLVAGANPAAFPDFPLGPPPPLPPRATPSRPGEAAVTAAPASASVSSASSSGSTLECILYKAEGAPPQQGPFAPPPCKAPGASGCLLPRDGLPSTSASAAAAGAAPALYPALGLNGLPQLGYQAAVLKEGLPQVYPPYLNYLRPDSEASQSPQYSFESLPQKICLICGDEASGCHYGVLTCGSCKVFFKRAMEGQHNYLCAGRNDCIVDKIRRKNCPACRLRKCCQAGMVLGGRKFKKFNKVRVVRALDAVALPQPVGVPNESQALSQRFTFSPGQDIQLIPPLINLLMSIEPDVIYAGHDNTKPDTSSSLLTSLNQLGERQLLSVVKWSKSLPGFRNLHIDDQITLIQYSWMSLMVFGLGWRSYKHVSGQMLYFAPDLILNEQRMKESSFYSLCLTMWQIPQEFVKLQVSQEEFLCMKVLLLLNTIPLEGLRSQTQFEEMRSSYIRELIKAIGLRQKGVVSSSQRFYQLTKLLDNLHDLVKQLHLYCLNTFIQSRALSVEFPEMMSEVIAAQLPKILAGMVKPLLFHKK

kidney-MR = biological target: T3, kidney-MR (Homo sapiens, UniProt P08235); conditions: cited from earlier work
T3 construct: host or cells: kidney
T3 sequence (P08235 1-984): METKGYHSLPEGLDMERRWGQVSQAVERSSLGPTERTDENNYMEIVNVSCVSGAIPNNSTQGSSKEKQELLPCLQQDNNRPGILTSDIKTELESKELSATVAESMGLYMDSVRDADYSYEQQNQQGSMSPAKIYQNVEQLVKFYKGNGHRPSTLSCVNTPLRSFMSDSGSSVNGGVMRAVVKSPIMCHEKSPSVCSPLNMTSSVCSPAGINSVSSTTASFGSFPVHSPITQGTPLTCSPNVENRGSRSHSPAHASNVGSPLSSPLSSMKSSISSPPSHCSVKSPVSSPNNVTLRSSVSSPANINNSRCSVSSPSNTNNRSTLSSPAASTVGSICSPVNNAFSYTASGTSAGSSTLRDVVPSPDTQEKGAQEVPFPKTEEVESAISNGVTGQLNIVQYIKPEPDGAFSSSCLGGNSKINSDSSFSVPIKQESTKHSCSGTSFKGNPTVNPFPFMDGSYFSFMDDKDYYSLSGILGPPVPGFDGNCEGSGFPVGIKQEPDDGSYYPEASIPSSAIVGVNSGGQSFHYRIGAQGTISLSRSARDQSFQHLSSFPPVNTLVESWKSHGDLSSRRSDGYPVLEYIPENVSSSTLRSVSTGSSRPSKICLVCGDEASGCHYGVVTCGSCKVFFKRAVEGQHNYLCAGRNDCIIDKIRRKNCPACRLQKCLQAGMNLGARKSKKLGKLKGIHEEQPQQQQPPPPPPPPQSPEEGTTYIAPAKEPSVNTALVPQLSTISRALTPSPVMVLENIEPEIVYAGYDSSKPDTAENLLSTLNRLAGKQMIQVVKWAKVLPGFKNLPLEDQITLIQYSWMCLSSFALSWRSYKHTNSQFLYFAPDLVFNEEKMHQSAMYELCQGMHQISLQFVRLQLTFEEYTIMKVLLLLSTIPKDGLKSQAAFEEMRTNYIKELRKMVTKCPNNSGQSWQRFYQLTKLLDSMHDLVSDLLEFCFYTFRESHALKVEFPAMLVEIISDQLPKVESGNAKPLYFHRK

[1] = Dexamethasone 10^−8 M + test compound 10^−5 M, 4 h at 37° C.

SMILES: C[C@]12CCC3C(C[C@H]4SC[C@@]35CCC(=O)C=C45)C1CCC2C(=O)CO (stereo partly drawn) [Compound 3, 21-Hydroxy-6,19-sulfanyl-4-pregnene-3,20-dione]
- % total apoptosis (rat thymocytes; [1]): 37.50%

SMILES: C[C@]12CCC3C(C[C@@H]4C5=CC(=O)CC[C@@]53C[S+]4[O-])C1CCC2C(=O)CO (stereo partly drawn) [Compound 4, 21-Hydroxy-6,19-sulfoxy-4-pregnene-3,20-dione]
- % total apoptosis (rat thymocytes; [1]): 34.60%
- reduction of the luciferase/β galactosidase ratio (glucocorticoid receptor): about 65%

SMILES: C[C@]12CCC3C(C[C@@H]4C5=CC(=O)CC[C@@]53CS4(=O)=O)C1CCC2C(=O)CO (stereo partly drawn) [Compound 5, 21-Hydroxy-6,19-sulfone-4-pregnene-3,20-dione]
- % total apoptosis (rat thymocytes; [1]): 31.40%

SMILES: C[C@]12CCC3C(C[C@H]4OC[C@@]35CCC(=O)C=C45)C1CCC2C(=O)CO (stereo partly drawn) [Compound 21OH-6OP, 21-hydroxy-6,19-oxidoprogesterone]
- % total apoptosis (rat thymocytes; [1]): 38.10%
- cross-reaction with uterus-PR (uterus-PR): does not substantially cross-react
- cross-reaction with kidney-MR (kidney-MR): does not substantially cross-react

SMILES: C[C@@H]1C[C@H]2[C@@H]3CCC4=CC(=O)C=C[C@]4(C)[C@@]3(F)[C@@H](O)C[C@]2(C)[C@@]1(O)C(=O)CO [Dexamethasone]
- % total apoptosis (rat thymocytes; Dexamethasone 10^−8 M alone, thymocytes 4 h at 37° C.): 40.40%

SMILES: CC#C[C@]1(O)CC[C@H]2[C@@H]3CCC4=CC(=O)CCC4=C3[C@@H](c3ccc(N(C)C)cc3)C[C@@]21C [RU-486, 11-(4-Dimethylamino-phenyl)-17-hydroxy-13-methyl-17-prop-1-ynyl-1,2,6,7,8,11,12,13,14,15,16,17-dodecahydro-cyclopenta[α]phenanthren-3-one]
- % total apoptosis (rat thymocytes; Dexamethasone 10^−8 M + reference compound 10^−6 M, 4 h at 37° C.): 35.50%
